# Data: ChEMBL document CHEMBL1201862, “PubChem BioAssay data set” (2004)
#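 Method: 48-hour compound exposure of cells in 96-well plates, five concentrations, linear interpolation of endpoints. GI50 = concentration required for 50% inhibition of growth.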 Calls of active or inactive are those of the source. Cut-off read from the data, not from the text of the source: active = GI50 up to about 1.1 µM and inactive = higher.
# Tests used:
# Test in all cases: NCI anticancer screen, dose series, 48 h
# MDA-MB-231 = test system: MDA-MB-231
# UACC-62 = test system: UACC-62
# RPMI-8226 = test system: RPMI-8226
# NCI-H226 = test system: NCI-H226
# UO-31 = test system: UO-31
# TK-10 = test system: TK-10
# DU-145 = test system: DU-145
# SN12C = test system: SN12C
# KM12 = test system: KM12
# HOP-92 = test system: HOP-92
# NCI-H23 = test system: NCI-H23
# SK-MEL-5 = test system: SK-MEL-5
# U-251 = test system: U-251
# OVCAR-8 = test system: OVCAR-8
# BT-549 = test system: BT-549
# MDA-MB-435 = test system: MDA-MB-435
# 786-0 = test system: 786-0
# SF-268 = test system: SF-268
# Hs-578T = test system: Hs-578T
# A549 = test system: A549
# HT-29 = test system: HT-29
# HCT-15 = test system: HCT-15
# UACC-257 = test system: UACC-257
# NCI-H460 = test system: NCI-H460
# SR = test system: SR
# A498 = test system: A498
# T47D = test system: T47D
# SW-620 = test system: SW-620
# OVCAR-4 = test system: OVCAR-4
# HOP-62 = test system: HOP-62
# IGROV-1 = test system: IGROV-1
# OVCAR-5 = test system: OVCAR-5
# COLO 205 = test system: COLO 205
# NCI-H522 = test system: NCI-H522
# RXF 393 = test system: RXF 393
# SF-295 = test system: SF-295
# MDA-N = test system: MDA-N
# SNB-75 = test system: SNB-75
# HCT-116 = test system: HCT-116
# PC-3 = test system: PC-3
# K562 = test system: K562
# MCF7 = test system: MCF7
# SF-539 = test system: SF-539
# OVCAR-3 = test system: OVCAR-3
# CAKI-1 = test system: CAKI-1
# ACHN = test system: ACHN
# SK-MEL-2 = test system: SK-MEL-2
# LOX IMVI = test system: LOX IMVI
# Malme-3M = test system: Malme-3M
# NCI/ADR-RES = test system: NCI/ADR-RES
# SK-OV-3 = test system: SK-OV-3
# SK-MEL-28 = test system: SK-MEL-28
# EKVX = test system: EKVX
# M14 = test system: M14
# SNB-19 = test system: SNB-19
# MOLT-4 = test system: MOLT-4
# HCC 2998 = test system: HCC 2998
# CCRF-CEM = test system: CCRF-CEM
# HL-60 = test system: HL-60
structure (smiles),measurement,setting,value
O=C1Nc2ccc(S(=O)(=O)O)cc2/C1=N/Nc1ccccc1[N+](=O)[O-],GI50,MDA-MB-231,> 100 µM (inactive)
same,GI50,UACC-62,35 µM (inactive)
same,GI50,RPMI-8226,> 100 µM (inactive)
same,GI50,NCI-H226,> 100 µM (inactive)
same,GI50,UO-31,> 100 µM (inactive)
same,GI50,TK-10,> 100 µM (inactive)
same,GI50,DU-145,> 100 µM (inactive)
same,GI50,SN12C,> 100 µM (inactive)
same,GI50,KM12,> 100 µM (inactive)
same,GI50,HOP-92,> 100 µM (inactive)
same,GI50,NCI-H23,> 100 µM (inactive)
same,GI50,SK-MEL-5,> 100 µM (inactive)
same,GI50,U-251,> 100 µM (inactive)
same,GI50,OVCAR-8,> 100 µM (inactive)
same,GI50,BT-549,> 100 µM (inactive)
same,GI50,MDA-MB-435,> 100 µM (inactive)
same,GI50,786-0,> 100 µM (inactive)
same,GI50,SF-268,> 100 µM (inactive)
same,GI50,Hs-578T,> 100 µM (inactive)
same,GI50,A549,> 100 µM (inactive)
same,GI50,HT-29,> 100 µM (inactive)
same,GI50,HCT-15,84.1 µM
same,GI50,UACC-257,> 100 µM (inactive)
same,GI50,NCI-H460,> 100 µM (inactive)
same,GI50,SR,> 100 µM (inactive)
same,GI50,A498,70.1 µM (inactive)
same,GI50,T47D,> 100 µM (inactive)
same,GI50,SW-620,> 100 µM (inactive)
same,GI50,OVCAR-4,> 100 µM (inactive)
same,GI50,HOP-62,> 100 µM (inactive)
same,GI50,IGROV-1,> 100 µM (inactive)
same,GI50,OVCAR-5,42.9 µM (inactive)
same,GI50,COLO 205,> 100 µM (inactive)
same,GI50,NCI-H522,> 100 µM (inactive)
same,GI50,RXF 393,> 100 µM (inactive)
same,GI50,SF-295,> 100 µM (inactive)
same,GI50,MDA-N,> 100 µM (inactive)
same,GI50,SNB-75,> 100 µM (inactive)
same,GI50,HCT-116,> 100 µM (inactive)
same,GI50,PC-3,> 100 µM (inactive)
same,GI50,K562,5.64 µM (inactive)
same,GI50,MCF7,> 100 µM (inactive)
same,GI50,SF-539,> 100 µM (inactive)
same,GI50,OVCAR-3,> 100 µM (inactive)
same,GI50,CAKI-1,> 100 µM (inactive)
same,GI50,ACHN,> 100 µM (inactive)
same,GI50,SK-MEL-2,> 100 µM (inactive)
same,GI50,LOX IMVI,> 100 µM (inactive)
same,GI50,Malme-3M,> 100 µM (inactive)
same,GI50,NCI/ADR-RES,> 100 µM (inactive)
same,GI50,SK-OV-3,97.9 µM (inactive)
same,GI50,SK-MEL-28,> 100 µM (inactive)
same,GI50,EKVX,> 100 µM (inactive)
same,GI50,M14,> 100 µM (inactive)
same,GI50,SNB-19,> 100 µM (inactive)
same,GI50,MOLT-4,> 100 µM (inactive)
O=C(Nc1sccc1S(=O)(=O)c1ccccc1)c1cccnc1,GI50,MDA-MB-231,> 69.5 µM (inactive)
same,GI50,UACC-62,14 µM (inactive)
same,GI50,RPMI-8226,7.52 µM (inactive)
same,GI50,NCI-H226,13.7 µM (inactive)
same,GI50,UO-31,> 58.1 µM (inactive)
same,GI50,TK-10,> 83 µM (inactive)
same,GI50,DU-145,39.2 µM (inactive)
same,GI50,SN12C,9.86 µM (inactive)
same,GI50,HCC 2998,21.3 µM (inactive)
same,GI50,KM12,4.62 µM (inactive)
same,GI50,HOP-92,> 42.4 µM (inactive)
same,GI50,NCI-H23,27 µM (inactive)
same,GI50,SK-MEL-5,3.61 µM (inactive)
same,GI50,U-251,2.97 µM (inactive)
same,GI50,CCRF-CEM,7.03 µM (inactive)
same,GI50,OVCAR-8,22.7 µM (inactive)
same,GI50,BT-549,> 37.1 µM (inactive)
same,GI50,MDA-MB-435,1.83 µM (inactive)
same,GI50,786-0,12 µM (inactive)
same,GI50,SF-268,57.4 µM (inactive)
same,GI50,Hs-578T,> 46.7 µM (inactive)
same,GI50,A549,11.5 µM (inactive)
same,GI50,HT-29,5.68 µM (inactive)
same,GI50,HCT-15,5.18 µM
same,GI50,UACC-257,37.5 µM (inactive)
same,GI50,NCI-H460,8.34 µM (inactive)
same,GI50,SR,5.2 µM (inactive)
same,GI50,T47D,70.6 µM (inactive)
same,GI50,SW-620,5.92 µM (inactive)
same,GI50,OVCAR-4,> 100 µM (inactive)
same,GI50,HOP-62,21.9 µM (inactive)
same,GI50,IGROV-1,9.02 µM (inactive)
same,GI50,OVCAR-5,> 70.6 µM (inactive)
same,GI50,COLO 205,3.88 µM (inactive)
same,GI50,NCI-H522,7.98 µM (inactive)
same,GI50,RXF 393,14.9 µM (inactive)
same,GI50,SF-295,8.63 µM (inactive)
same,GI50,HL-60,0.614 µM (active)
same,GI50,MDA-N,1.02 µM (active)
same,GI50,SNB-75,19.1 µM (inactive)
same,GI50,HCT-116,6.59 µM (inactive)
same,GI50,PC-3,37.6 µM (inactive)
same,GI50,K562,4.39 µM (inactive)
same,GI50,MCF7,8.07 µM (inactive)
same,GI50,SF-539,5.94 µM (inactive)
same,GI50,OVCAR-3,11.6 µM (inactive)
same,GI50,CAKI-1,> 32.7 µM (inactive)
same,GI50,ACHN,64.9 µM (inactive)
same,GI50,SK-MEL-2,6.71 µM (inactive)
same,GI50,LOX IMVI,75.3 µM (inactive)
same,GI50,Malme-3M,8.59 µM (inactive)
same,GI50,NCI/ADR-RES,3.96 µM (inactive)
same,GI50,SK-OV-3,11.7 µM (inactive)
same,GI50,SK-MEL-28,38.5 µM (inactive)
same,GI50,EKVX,48.9 µM (inactive)
same,GI50,M14,6.08 µM (inactive)
same,GI50,SNB-19,> 44.5 µM (inactive)
same,GI50,MOLT-4,5.35 µM (inactive)
